Experimental data as given in the supplement of paper PMC10307832.

What was measured:
Test in all cases: relative viability (nuclei count vs DMSO), 5 days (fraction); higher = more cells survive
[1] = compound: O=S(=O)(c1ccccc1)N(CC(F)(F)F)c1ccc(C(O)(C(F)(F)F)C(F)(F)F)cc1 + O=C(CCCCCCC(=O)Nc1ccccc1)NO [Vorinostat] (partner 1 µM)
Procedure, shortened: (§1)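 Lung cancer cell lines, seeded in 1536-well plates, were treated the following day by pin tool with a single drug or with five library-drug doses (not always all listed) in √10 steps on top of a fixed anchor-drug dose. Cells were fixed and nuclei stained in one step after 5 days, and nuclei were counted. Relative viability is the nuclei count for treated wells divided by that for vehicle wells, reported as medians of duplicate plates.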

[2] = compound: O=S(=O)(c1ccccc1)N(CC(F)(F)F)c1ccc(C(O)(C(F)(F)F)C(F)(F)F)cc1 + C[C@@H](Oc1cc(-c2cnn(C3CCNCC3)c2)cnc1N)c1c(Cl)ccc(F)c1Cl [Crizotinib] (partner 1 µM)
Procedure, shortened: as §1

RO-3306 + Olaparib = compound: C1=CC2=C(C=CC(=C2)C=C3C(=O)NC(=NCC4=CC=CS4)S3)N=C1 [RO-3306] + O=C(c1cc(Cc2n[nH]c(=O)c3ccccc23)ccc1F)N1CCN(C(=O)C2CC2)CC1 [Olaparib] (partner 8 µM)
Procedure, shortened: as §1

[3] = compound: O=S(=O)(c1ccccc1)N(CC(F)(F)F)c1ccc(C(O)(C(F)(F)F)C(F)(F)F)cc1 + COc1cccc2cc(-c3nc([C@H]4CC[C@H](C(=O)O)CC4)n4ncnc(N)c34)[nH]c12 [OSI-027] (partner 0.5 µM)
Procedure, shortened: as §1

[4] = compound: O=S(=O)(c1ccccc1)N(CC(F)(F)F)c1ccc(C(O)(C(F)(F)F)C(F)(F)F)cc1 + C[C@]1(O)C[C@@H](c2nc(-c3ccc4ccc(-c5ccccc5)nc4c3)c3c(N)nccn32)C1 [Linsitinib] (partner 1 µM)
Procedure, shortened: as §1

[5] = compound: O=S(=O)(c1ccccc1)N(CC(F)(F)F)c1ccc(C(O)(C(F)(F)F)C(F)(F)F)cc1 + Nc1nc2[nH]cc(CCc3ccc(C(=O)N[C@@H](CCC(=O)O)C(=O)O)cc3)c2c(=O)[nH]1 [Pemetrexed] (partner 0.2 µM)
Procedure, shortened: as §1

Cell Line	relative viability ([1]; first compound 0.8 µM)	relative viability ([1]; first compound 2.53 µM)	relative viability ([1]; first compound 8 µM)	relative viability ([2]; first compound 0.8 µM)	relative viability ([2]; first compound 2.53 µM)	relative viability ([2]; first compound 8 µM)	relative viability (RO-3306 + Olaparib; first compound 0.01 µM)	relative viability (RO-3306 + Olaparib; first compound 0.03162 µM)	relative viability (RO-3306 + Olaparib; first compound 0.1 µM)	relative viability (RO-3306 + Olaparib; first compound 0.3162 µM)	relative viability (RO-3306 + Olaparib; first compound 1 µM)	relative viability ([3]; first compound 0.8 µM)	relative viability ([3]; first compound 2.53 µM)	relative viability ([3]; first compound 8 µM)	relative viability ([4]; first compound 0.8 µM)	relative viability ([4]; first compound 2.53 µM)	relative viability ([4]; first compound 8 µM)	relative viability ([5]; first compound 0.8 µM)	relative viability ([5]; first compound 2.53 µM)	relative viability ([5]; first compound 8 µM)
HCC-827	0.874	0.842	0.781	0.932	0.917	0.95	0.705	0.67	0.627	0.715	0.666	0.883	0.858	0.766	1.03	0.954	0.938	0.266	0.246	0.239
HOP-62	0.716	0.508	0.522	1.04	0.871	0.913	0.606	0.476	0.168	0.406	0.678	0.904	0.878	0.665	1.14	0.607	0.836	0.238	0.271	0.243
LC-2-ad	0.734	0.657	0.602	0.478	0.498	0.443	0.703	0.663	0.719	0.693	0.712	0.876	0.889	0.827	0.701	0.831	0.816	0.274	0.286	0.244
LCLC-97TM1		0.562	0.567	0.314	0.371	0.297	0.406	0.479	0.315	0.367	0.278	0.614	0.527	0.603	0.197	0.179	0.202		0.16	0.179
LCLC-103H	0.859	0.746	0.78	1.14	1.13	1.15	0.836	0.776	0.772	0.733	0.784	0.507	0.505	0.439	1.06	1.17	0.936	0.457	0.465	0.467
LK-2	0.27	0.247	0.346	0.2	0.229	0.242	0.735	0.566	0.841	0.577	0.734	0.213	0.199	0.229	0.643	0.553	0.301	0.283	0.266	0.298
LOU-NH91	0.985	0.913	1.04	0.748	0.775	0.753	0.953	0.834	0.916	0.913	0.813	0.722	0.718	0.79	0.996	0.92	0.915	0.424	0.434	0.35
LU99A	0.568	0.462	0.401	0.634	0.465	0.516	0.275	0.233	0.233	0.25	0.2	0.302	0.296	0.302	0.47	0.524	0.558	0.184	0.18	0.18
LXF-289	0.719	0.656	0.74	0.793	0.721	0.689	1.06	0.897	1.06	1.08	0.692	0.877	0.64	0.749	0.929	0.795	0.821	0.883	0.82	0.86
NCI-H23	0.75	0.622	0.725	0.471	0.452	0.513	0.333		0.25	0.307	0.268	0.62	0.711	0.594	0.627	0.571	0.605	0.706	0.654	0.74
NCI-H322M	0.883	0.842	0.869	0.981	0.835	0.743	0.817	0.743	0.773	0.785	0.696	0.61	0.501	0.506	1.09	0.915	0.999	0.603	0.62	0.595
NCI-H358		0.581	0.541	0.606	0.515	0.512	0.779	0.485	0.583	0.596	0.468	0.743	0.751	0.543	0.598	0.521	0.578		0.177	0.181
NCI-H441	0.464	0.85	0.781	0.992	0.869	0.717	0.641	0.461	0.592	0.581	0.443	0.669	0.517	0.62	0.559	0.504	0.49	0.25	0.262	0.285
NCI-H460	0.847	0.673	0.618	0.824	1.03	1	0.412	0.363	0.464	0.442	0.466	0.882	0.699	0.723	1.55	0.829	0.695	0.0543	0.0599	0.0652
NCI-H520	0.847	0.678	0.77	0.939	0.767	0.855	0.359	0.244	0.315	0.344	0.351	0.298	0.21	0.281	1.09	1.23	1.25	0.757	0.908	0.795
NCI-H596	0.583	0.559	0.6	0.921	0.947	0.926	0.675	0.669	0.616	0.672	0.569	0.71	0.6	0.716	1.17	0.838	0.968	0.549	0.528	0.562
